Reference: patent US20190183893A1 (Guangzhou Dawnlight Biotech Company, priority 2016, published 2019)
“Also recorded” adds a separate entry of the source. Counter-ions that a name gives are not always drawn. Like-named read-outs stand apart in the source and are kept apart here.

Assays:
[1] = tested on: transplanted tumor in mice; type: in vivo, mouse; settings: for effect on the antineoplastic activity of low dose sildenafil: 2 mg/kg/day with sildenafil citrate 10 or 20 mg/kg/day; for tumor inhibition rate: 2 weeks; for toxicity / adverse reactions of the mice during the experimental period: citrate
[2] = tested on: cultured tumor cells; experiment: growth of cultured tumor cells; type: cell-based; settings: 200 μM; citrate
Description: (§1) The antitneoplastic mechanism of sildenafil at low doses is not yet clear.
(§2) The antitneoplastic mechanism of low dose sildenafil is not yet clear.

[3] = tested on: cultured tumor cells; experiment: production of reactive oxygen species (ROS) in cultured tumor cells; type: cell-based; settings: 300 μM; citrate
Description: as §1, §2

[4] = sildenafil concentration in the blood after oral intake by an adult patient; type: in vivo, human; settings: low oral doses (2-10 mg), estimated
Description: as §1, §2

[5] = tested on: malignant tumors; experiment: general statement on low dose sildenafil: tumor growth inhibition in vivo and tolerability; settings: low dose: daily oral 0.04˜0.5 mg per 1 kg, injection 0.04˜0.2 mg per 1 kg or topical less than 1%; for toxicity or side effects: citrate
Description: It can be used to achieve effective control of tumor growth and improve the treatment of tumors.

[6] = tested on: human hepatocellular carcinoma cell line (HEPG2); settings: 2 μM, citrate; cited from earlier work
[7] = tested on: transplanted tumor of prostate cancer; settings: cited from earlier work
[8] = tested on: transplanted tumor derived from liver cancer; settings: mouth-fed, combined with Stivarga (regorafenib); cited from earlier work

Q: Which results are given for `CN(C)CCC(c1ccc(Cl)cc1)c1ccccn1` (stereo not drawn) [chlorphenamine maleate]?
A: effect on the antineoplastic activity of low dose sildenafil [1]: directly counteract the antineoplastic activity; effect on the antineoplastic activity of low dose sildenafil ([1]; listed as chlorphenamine malate): significantly counteracted the antineoplastic activity

Q: Which results are given for `CCCc1nn(C)c2c(=O)[nH]c(-c3cc(S(=O)(=O)N4CCN(C)CC4)ccc3OCC)nc12.O=C(O)CC(O)(CC(=O)O)C(=O)O` [sildenafil, 1-[[3-(6,7-Dihydro-1-methyl-7-oxo-3-propyl-1H-pyrazolo[4,3-d]pyrimidin-5-yl)-4-ethoxyphenyl]sulfonyl]-4-methylpiperazine citrate]?
A: tumor inhibition rate ([1]; 10 mg/kg/day, combined with chlorphenamine maleate 2 mg/kg/day): 16%; tumor inhibition rate ([1]; 20 mg/kg/day, combined with chlorphenamine maleate 2 mg/kg/day): 7%; inhibitory effect on growth of the transplanted tumor ([1]; 50 mg/kg/day): no obvious inhibitory effects; tumor inhibition rate ([1]; gavage 10 mg/kg/day, alone): 63%; tumor growth inhibition rate ([1]; gavage 10 mg/kg/day, 36 days, dissolved in 25% ethanol): 68%; toxicity / adverse reactions of the mice during the experimental period ([1]; gavage 10 mg/kg/day, 36 days, 10 mg/kg/day): no significant or observable toxicity reactions; toxicity / adverse reactions of the mice during the experimental period ([1]; gavage 10 mg/kg/day, 36 days, listed as sildenafil citrate, 10 mg/kg/day): no significant or observable adverse reactions; tumor inhibition rate ([1]; gavage 20 mg/kg/day, alone): 50%; effect on the growth of cultured tumor cells [2]: direct inhibitory effect; also recorded: directly inhibited the growth; production of reactive oxygen species (ROS) [3]: induced production of reactive oxygen species (ROS); also recorded: induce the production of reactive oxygen species (ROS); drug concentration in the blood [4]: lower than 0.1 μM; inhibition rate of tumor growth [5]: more than 50%; toxicity or side effects [5]: does not produce significant toxicity or side effects; toxicity or side effects ([5]; listed as Sildenafil citrate): without significant toxic side effects; toxicity or side effects ([5]; listed as sildenafil citrate): without significant toxic side effects; expression of IkB nitro-tyrosine and apoptotic gene ligand Fas-L [6]: stimulate the expression; antineoplastic effect used alone ([7]; alone at normal doses (25-100 mg), versus control group): not significant; growth of transplanted tumor of prostate cancer ([7]; intraperitoneal injection, combined with Adriamycin (Doxorubicin)): significantly inhibit the growth; growth of transplanted tumor derived from liver cancer [8]: significantly inhibit the growth
